Source: EP0641797A1, “Cephem derivatives and antimicrobial agents containing the same” (KATAYAMA SEIYAKUSYO CO. Ltd., priority 1993, dated 1995)
Values after ≈ are worked out from the molar mass of the structure shown. Read-outs that look alike come from different tables or passages of the source.

Columns and labels:
Assay in all cases: MIC on standard strains, standard method of Japan Society of Chemotherapy
Assay type in all cases: cell-based
[1] = test system: B. subtilis ATCC 6633
Method in brief: (§1)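 Read-out: lowest concentration inhibiting growth, per Japanese chemotherapy society guidelines. Strain set comprised 25 standard organisms, including two MRSA isolates. Controls included CTM and FMOX.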

[2] = test system: M. morganii IFO 3848; settings: Morganella morganii, IFO3848
Method in brief: as §1

[3] = test system: E. cloacae ATCC 13407
Method in brief: as §1

[4] = test system: E. coli CSH2(RK1); settings: Escherichia coli
Method in brief: (§2)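 Test compounds were run alongside cefotiam and flomoxef controls, with growth inhibition assessed by the standard protocol of the Japan Society of Chemotherapy on 25 reference strains.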

[5] = test system: E. coli CSH2(RE45); settings: Escherichia coli
Method in brief: as §2

[6] = test system: A. faecalis ATCC 3750; settings: Alcaligenes faecalis, ATCC3750, A. faecalis ATCC 3750; read-out: MIC
Method in brief: as §1

[7] = test system: K. pneuminiae No. 42
Method in brief: as §1

[8] = test system: S. aureus 209p JC-1; settings: Staphylococcus aureus, 209P, read-out: MIC
Method in brief: as §1

[9] = test system: P. mirabilis IFO 3849
Method in brief: as §1

[10] = test system: P. cepacia
Method in brief: as §1

[11] = test system: S. aureus 195; settings: Staphylococcus aureus; S. aureus 195 (MRSA)
Method in brief: as §1

[12] = test system: P. aeruginosa AKR17; settings: Pseudomonas aeruginosa
Method in brief: as §1

[13] = test system: M. luteus ATCC 9341; settings: Micrococcus luteus, ATCC9341
Method in brief: as §1

[14] = test system: P. vulugaris OX-19
Method in brief: as §1

[15] = test system: E. coli NHIJ JC-2; settings: Escherichia coli, NHIJJC2
Method in brief: as §1

[16] = test system: A. calcoaceticos T59
Method in brief: as §1

[17] = test system: S. epidemidis IAM 1296
Method in brief: as §1

[18] = test system: K. pneuminiae IFO 3317
Method in brief: as §1

[19] = test system: S. marcescens IAM 1184; settings: Serratia marcescens, IAM1184, S. marcescens IAM 1184; read-out: MIC
Method in brief: as §1

[20] = test system: P. aeruginosa NCTC 10490; settings: Pseudomonas aeruginosa, NCTC10490, P. aeruginosa NCTC 10490; read-out: MIC
Method in brief: as §1

[21] = test system: E. cloacae Nek39
Method in brief: as §1

[22] = test system: S. marcescens No. 16-2; settings: Serratia marcescens, NO.162
Method in brief: as §1

[23] = test system: S. aureus Smith; settings: Staphylococcus aureus, read-out: MIC
Method in brief: as §1

[24] = test system: S. aureus 167; settings: Staphylococcus aureus; S. aureus 167 (MRSA)
Method in brief: as §1

[25] = test system: C. freundii ATCC 8090
Method in brief: as §1

[26] = Bacillus subtilis, ATCC6633, B. subtilis ATCC 6633, read-out: MIC
[27] = Enterobacter cloacae, ATCC13407, E. cloacae ATCC 13407, read-out: MIC
[28] = Proteus mirabilis, IFO3849, P. mirabilis IFO 3849, read-out: MIC
[29] = Burkholderia cepacia, read-out: MIC
[30] = Enterobacter cloacae, NEK39, E. cloacae Nek39, read-out: MIC
[31] = Citrobacter freundii, ATCC8090, C. freundii ATCC 8090, read-out: MIC

Structure (SMILES): NC(=NO)c1cc[n+](CC2=C(C(=O)[O-])N3C(=O)[C@@H](NC(=O)/C(=N\O)c4csc(N)n4)[C@H]3SC2)cc1 [Ex. 20, 7β-[2-(2-aminothiazol-4-yl)-2-syn-hydroxyiminoacetamido]-3-[4-(1-amino-1-hydroxyiminomethyl)pyridinio]methyl-3-cephem-4-carboxylate]
- MIC [1, 26]: 0.2 µg/mL (≈ 0.386 µM)
- MIC [2]: 0.1 µg/mL (≈ 0.193 µM)
- MIC [3, 27]: 12.5 µg/mL (≈ 24.1 µM)
- MIC [4]: 0.39 µg/mL (≈ 0.752 µM)
- MIC [5]: 0.2 µg/mL (≈ 0.386 µM)
- MIC [6]: 0.78 µg/mL (≈ 1.5 µM)
- MIC [7]: 0.39 µg/mL (≈ 0.752 µM)
- MIC [8]: 0.2 µg/mL (≈ 0.386 µM)
- MIC [9, 28]: 0.2 µg/mL (≈ 0.386 µM)
- MIC [10, 29]: > 100 µg/mL
- MIC [11]: 3.31 µg/mL (≈ 6.38 µM)
- MIC [12]: > 100 µg/mL
- MIC [13]: 0.025 µg/mL (≈ 0.0482 µM)
- MIC [14]: 0.2 µg/mL (≈ 0.386 µM)
- MIC [15]: 0.2 µg/mL (≈ 0.386 µM)
- MIC ([16]; read-out: MIC): 6.25 µg/mL (≈ 12.1 µM)
- MIC [17]: 0.05 µg/mL (≈ 0.0964 µM)
- MIC [18]: 0.1 µg/mL (≈ 0.193 µM)
- MIC [19]: 0.1 µg/mL (≈ 0.193 µM)
- MIC [20]: 0.78 µg/mL (≈ 1.5 µM)
- MIC [21, 30]: 50 µg/mL (≈ 96.4 µM)
- MIC [22]: 100 µg/mL (≈ 193 µM)
- MIC [23]: 0.39 µg/mL (≈ 0.752 µM)
- MIC [24]: 6.25 µg/mL (≈ 12.1 µM)
- MIC [25, 31]: 0.2 µg/mL (≈ 0.386 µM)

Structure (SMILES): Nc1nc(/C(=N/O)C(=O)N[C@@H]2C(=O)N3C(C(=O)[O-])=C(C[n+]4ccc(-c5nccs5)cc4)CS[C@H]23)cs1 [Ex. 21, 7β-[2-(2-aminothiazol-4-yl)-2-syn-hydroxyiminoacetamido]-3-[4-(thiazol-2-yl)pyridinio]methyl-3-cephem-4-carboxylate]
- MIC [1, 26]: 0.2 µg/mL (≈ 0.368 µM)
- MIC [2]: 0.05 µg/mL (≈ 0.092 µM)
- MIC [3, 27]: 1.56 µg/mL (≈ 2.87 µM)
- MIC [4]: 0.2 µg/mL (≈ 0.368 µM)
- MIC [5]: 0.1 µg/mL (≈ 0.184 µM)
- MIC [6]: 0.78 µg/mL (≈ 1.43 µM)
- MIC [7]: 0.2 µg/mL (≈ 0.368 µM)
- MIC [8]: 0.2 µg/mL (≈ 0.368 µM)
- MIC [9, 28]: 0.2 µg/mL (≈ 0.368 µM)
- MIC [10, 29]: > 100 µg/mL
- MIC [11]: 1.56 µg/mL (≈ 2.87 µM)
- MIC [12]: > 100 µg/mL
- MIC [13]: 0.025 µg/mL (≈ 0.046 µM)
- MIC [14]: 0.1 µg/mL (≈ 0.184 µM)
- MIC [15]: 0.1 µg/mL (≈ 0.184 µM)
- MIC ([16]; read-out: MIC): 12.5 µg/mL (≈ 23 µM)
- MIC [17]: 0.1 µg/mL (≈ 0.184 µM)
- MIC [18]: 0.1 µg/mL (≈ 0.184 µM)
- MIC [19]: 0.1 µg/mL (≈ 0.184 µM)
- MIC [20]: 6.25 µg/mL (≈ 11.5 µM)
- MIC [21, 30]: 50 µg/mL (≈ 92 µM)
- MIC [22]: 50 µg/mL (≈ 92 µM)
- MIC [23]: 0.39 µg/mL (≈ 0.717 µM)
- MIC [24]: 3.13 µg/mL (≈ 5.76 µM)
- MIC [25, 31]: 0.1 µg/mL (≈ 0.184 µM)

Structure (SMILES): Nc1nc(/C(=N/O)C(=O)N[C@@H]2C(=O)N3C(C(=O)[O-])=C(C[n+]4ccc(-c5cncs5)cc4)CS[C@H]23)cs1 [Ex. 22, 7β-[2-(2-aminothiazol-4-yl)-2-syn-hydroxyiminoacetamido]-3-[4-(thiazol-5-yl)pyridinio]methyl-3-cephem-4-carboxylate]
- MIC [1, 26]: 0.2 µg/mL (≈ 0.368 µM)
- MIC [2]: 0.025 µg/mL (≈ 0.046 µM)
- MIC [3, 27]: 0.78 µg/mL (≈ 1.43 µM)
- MIC [4]: 0.2 µg/mL (≈ 0.368 µM)
- MIC [5]: 0.1 µg/mL (≈ 0.184 µM)
- MIC [6]: 1.56 µg/mL (≈ 2.87 µM)
- MIC [7]: 0.1 µg/mL (≈ 0.184 µM)
- MIC [8]: 0.2 µg/mL (≈ 0.368 µM)
- MIC [9, 28]: 0.1 µg/mL (≈ 0.184 µM)
- MIC [10, 29]: > 100 µg/mL
- MIC [11]: 0.78 µg/mL (≈ 1.43 µM)
- MIC [12]: > 100 µg/mL
- MIC [13]: 0.025 µg/mL (≈ 0.046 µM)
- MIC [14]: 0.1 µg/mL (≈ 0.184 µM)
- MIC [15]: 0.1 µg/mL (≈ 0.184 µM)
- MIC ([16]; read-out: MIC): 12.5 µg/mL (≈ 23 µM)
- MIC [17]: 0.1 µg/mL (≈ 0.184 µM)
- MIC [18]: 0.05 µg/mL (≈ 0.092 µM)
- MIC [19]: 0.1 µg/mL (≈ 0.184 µM)
- MIC [20]: 3.13 µg/mL (≈ 5.76 µM)
- MIC [21, 30]: 25 µg/mL (≈ 46 µM)
- MIC [22]: 25 µg/mL (≈ 46 µM)
- MIC [23]: 0.2 µg/mL (≈ 0.368 µM)
- MIC [24]: 1.56 µg/mL (≈ 2.87 µM)
- MIC [25, 31]: 0.1 µg/mL (≈ 0.184 µM)

Structure (SMILES): CO[C@@]1(NC(=O)CSC(F)F)C(=O)N2C(C(=O)O)=C(CSc3nnnn3CCO)CO[C@@H]21 [FMOX, flomoxef, reference compound]
- MIC ([1]; B. subtilis ATCC 6633): 0.2 µg/mL (≈ 0.403 µM)
- MIC [1, 26]: 0.39 µg/mL (≈ 0.786 µM)
- MIC [2]: 0.39 µg/mL (≈ 0.786 µM)
- MIC ([3]; E. cloacae ATCC 13407): 100 µg/mL (≈ 201 µM)
- MIC [3, 27]: 50 µg/mL (≈ 101 µM)
- MIC [4]: 0.1 µg/mL (≈ 0.201 µM)
- MIC [5]: 0.1 µg/mL (≈ 0.201 µM)
- MIC [6]: 0.1 µg/mL (≈ 0.201 µM)
- MIC [7]: 0.1 µg/mL (≈ 0.201 µM)
- MIC [8]: 0.39 µg/mL (≈ 0.786 µM)
- MIC ([9]; P. mirabilis IFO 3849): 0.2 µg/mL (≈ 0.403 µM)
- MIC [9, 28]: 0.39 µg/mL (≈ 0.786 µM)
- MIC [10]: 100 µg/mL (≈ 201 µM)
- MIC [10, 29]: 50 µg/mL (≈ 101 µM)
- MIC [11]: 3.13 µg/mL (≈ 6.3 µM)
- MIC [12]: > 100 µg/mL
- MIC [13]: 0.1 µg/mL (≈ 0.201 µM)
- MIC [14]: 0.39 µg/mL (≈ 0.786 µM)
- MIC [15]: 0.1 µg/mL (≈ 0.201 µM)
- MIC [16]: 100 µg/mL (≈ 201 µM)
- MIC ([16]; read-out: MIC): > 100 µg/mL
- MIC [17]: 0.2 µg/mL (≈ 0.403 µM)
- MIC [18]: 0.05 µg/mL (≈ 0.101 µM)
- MIC [19]: 0.2 µg/mL (≈ 0.403 µM)
- MIC [20]: > 100 µg/mL
- MIC ([21]; E. cloacae Nek39): 100 µg/mL (≈ 201 µM)
- MIC [21, 30]: > 100 µg/mL
- MIC [22]: 100 µg/mL (≈ 201 µM)
- MIC [23]: 0.39 µg/mL (≈ 0.786 µM)
- MIC [24]: 50 µg/mL (≈ 101 µM)
- MIC ([25]; C. freundii ATCC 8090): 0.2 µg/mL (≈ 0.403 µM)
- MIC [25, 31]: 0.39 µg/mL (≈ 0.786 µM)
